For assay [1], the system named is Cavendish bananas. The assay can be described thus: Storage of harvested Cavendish bananas in banavac polyethylene bags in containers with or without ozone. The following applies: Container 7: 200 to 300 parts per billion ozone in surrounding atmosphere; polyethylene bags tied closed; regular atmosphere (20.8 percent oxygen); 56 days of storage; versus Container 8 without ozone. From the text: Experimental conditions included loading harvested Cavendish bananas in polyethylene bags (known as “banavac” bags) into two containers, both having a regular atmosphere (containing 20.8 percent oxygen), with vents partially opened for the first four weeks and completely closed for the last four weeks of the experimental period. The experimental difference between the containers was the maintenance of 200 to 300 parts per billion of ozone in Container 7, and the absence of ozone from Container 8.
Container 8 in the experiment detailed in FIG. 3 was loaded with bananas in modified atmosphere packaging (here, polyethylene bags tied closed with a knot). The bananas were stored in the container without added ozone. At 56 days after harvest, all of the bananas were spoiled to the point of liquefaction.
Container 7 in the experiment detailed in FIG. 3 was loaded with bananas in modified atmosphere packaging (here also, polyethylene bags tied closed with a knot). According to an embodiment of the present invention, the bags of bananas in Container 7 were exposed to a surrounding atmosphere containing an ozone level of 200 to 300 parts per billion.

Assay [2] deals with bananas. The assay can be described thus: Addition of ozone to controlled-atmosphere and regular-atmosphere containers of bananas. The following applies: ozone added. The procedure: In another embodiment, a controlled-atmosphere shipping container is filled with bananas packaged in perforated bags, and ozone is added to the controlled atmosphere. If a non-ozonated controlled-atmosphere container is well sealed, ethylene will accumulate, offsetting the benefit of slowed respiration afforded by the controlled atmosphere.

Each structure is given as a SMILES string.

In the case of `O=[O+][O-]` [ozone], in assay [1], the “condition of the bananas after storage” value is listed as “markedly superior condition compared to that of the control bananas”. For the same compound, in assay [2], the “climacteric ripening of bananas” value is recorded as “delay climacteric ripening of bananas” and the “overall ethylene levels in containers” value is “reduce overall ethylene levels”.

Values taken from patent publication US20080166694A1, “Plant tissue packaging process” (priority 2007, published 2008).
